Measured values published in US11812767B2, “Beverage having Reb D and Reb M” (SUNTORY HOLDINGS LIMITED, priority 2018, dated 2023).

How the values were obtained:
[1] = cited from earlier work
[2] = Degradation of Reb D and Reb M in phosphate buffer at 40° C. for 8 weeks, analysed by HPLC; type: physicochemical; details: for % Reb M degradation 2 weeks: 2 weeks at 40° C.; for % Reb M degradation 4 weeks: 4 weeks at 40° C.; for % Reb M degradation 6 weeks: 6 weeks at 40° C.; for % Reb M degradation 8 weeks: 8 weeks at 40° C.
Procedure: A study was carried out as follows, samples were prepared comprising 50 ppm, 150 ppm, 250 ppm and 400 ppm, of Reb D and samples with the following ratios of Reb D:Reb M 1:4, 1:1, 4:1 wherein the total concentration of the sample was 400 ppm. The samples were prepared in phosphate buffer and the pH was adjusted using phosphoric acid. Samples were prepared at the following pH; 2.0, 2.5, 3.0 and 3.5. These samples were incubated at 40° C. for 8 weeks. This incubation protocol should mimic the degradation at room temperature over 6 months. The amount of Reb D and Reb M in each sample at T=0 was calculated by HPLC this was then used to calculate the amount of remaining Reb M in each sample at each specified time point. Aliquots were taken at 2, 4, 6 and 8 weeks and analysed by HPLC to determine the degradation of Reb D and combinations of Reb D and Reb M over the 8 week study.

[3] = pH 2, Reb D 0.008 % w/w + Reb M 0.032 % w/w
[4] = pH 2, Reb D 0.02 % w/w + Reb M 0.02 % w/w
[5] = pH 2, Reb D 0.032 % w/w + Reb M 0.008 % w/w
[6] = pH 2.5, Reb D 0.008 % w/w + Reb M 0.032 % w/w
[7] = pH 2.5, Reb D 0.02 % w/w + Reb M 0.02 % w/w
[8] = pH 2.5, Reb D 0.032 % w/w + Reb M 0.008 % w/w
[9] = pH 3, Reb D 0.008 % w/w + Reb M 0.032 % w/w
[10] = pH 3, Reb D 0.02 % w/w + Reb M 0.02 % w/w
[11] = pH 3, Reb D 0.032 % w/w + Reb M 0.008 % w/w
[12] = pH 3.5, Reb D 0.008 % w/w + Reb M 0.032 % w/w
[13] = pH 3.5, Reb D 0.02 % w/w + Reb M 0.02 % w/w
[14] = pH 3.5, Reb D 0.032 % w/w + Reb M 0.008 % w/w

Rebaudioside F
Sweetness potency (relative to sucrose) [1]: 200

Rebaudioside C
Sweetness potency (relative to sucrose) [1]: 30

C=C1C[C@@]23CC[C@H]4[C@@](C)(CCC[C@@]4(C)C(=O)O[C@@H]4O[C@H](CO)[C@@H](O)[C@H](O[C@@H]5O[C@H](CO)[C@@H](O)[C@H](O)[C@H]5O)[C@H]4O[C@@H]4O[C@H](CO)[C@@H](O)[C@H](O)[C@H]4O)[C@@H]2CC[C@]1(O[C@@H]1O[C@H](CO)[C@@H](O)[C@H](O[C@@H]2O[C@H](CO)[C@@H](O)[C@H](O)[C@H]2O)[C@H]1O[C@@H]1O[C@H](CO)[C@@H](O)[C@H](O)[C@H]1O)C3 [Reb M, rebaudioside M]
% Reb M degradation 2 weeks [2, 3]: 28% | % Reb M degradation 4 weeks [2, 3]: 55% | % Reb M degradation 6 weeks [2, 3]: 71% | % Reb M degradation 8 weeks [2, 3]: 80% | % Reb M degradation 2 weeks [2, 4]: 25% | % Reb M degradation 4 weeks [2, 4]: 56% | % Reb M degradation 6 weeks [2, 4]: 69% | % Reb M degradation 8 weeks [2, 4]: 78% | % Reb M degradation 2 weeks [2, 5]: 35% | % Reb M degradation 4 weeks [2, 5]: 59% | % Reb M degradation 6 weeks [2, 5]: 72% | % Reb M degradation 8 weeks [2, 5]: 80% | % Reb M degradation 2 weeks [2, 6]: 3% | % Reb M degradation 4 weeks [2, 6]: 22% | % Reb M degradation 6 weeks [2, 6]: 31% | % Reb M degradation 8 weeks [2, 6]: 38% | % Reb M degradation 2 weeks [2, 7]: 6% | % Reb M degradation 4 weeks [2, 7]: 20% | % Reb M degradation 6 weeks [2, 7]: 29% | % Reb M degradation 8 weeks [2, 7]: 38% | % Reb M degradation 2 weeks [2, 8]: 4% | % Reb M degradation 4 weeks [2, 8]: 18% | % Reb M degradation 6 weeks [2, 8]: 28% | % Reb M degradation 8 weeks [2, 8]: 38% | % Reb M degradation 2 weeks [2, 9]: 0% | % Reb M degradation 4 weeks [2, 9]: 11% | % Reb M degradation 6 weeks [2, 9]: 15% | % Reb M degradation 8 weeks [2, 9]: 17% | % Reb M degradation 2 weeks [2, 10]: 0% | % Reb M degradation 4 weeks [2, 10]: 10% | % Reb M degradation 6 weeks [2, 10]: 14% | % Reb M degradation 8 weeks [2, 10]: 17% | % Reb M degradation 2 weeks [2, 11]: 0% | % Reb M degradation 4 weeks [2, 11]: 7% | % Reb M degradation 6 weeks [2, 11]: 12% | % Reb M degradation 8 weeks [2, 11]: 15% | % Reb M degradation 2 weeks [2, 12]: 0% | % Reb M degradation 4 weeks [2, 12]: 4% | % Reb M degradation 6 weeks [2, 12]: 4% | % Reb M degradation 8 weeks [2, 12]: 6% | % Reb M degradation 2 weeks [2, 13]: 0% | % Reb M degradation 4 weeks [2, 13]: 3% | % Reb M degradation 6 weeks [2, 13]: 4% | % Reb M degradation 8 weeks [2, 13]: 7% | % Reb M degradation 2 weeks [2, 14]: 0% | % Reb M degradation 4 weeks [2, 14]: 0% | % Reb M degradation 6 weeks [2, 14]: 2% | % Reb M degradation 8 weeks [2, 14]: 5% | Sweetness potency (relative to sucrose) [1]: 200-250

C=C1C[C@@]23CC[C@H]4[C@@](C)(CCC[C@@]4(C)C(=O)O[C@@H]4O[C@H](CO)[C@@H](O)[C@H](O)[C@H]4O[C@@H]4O[C@H](CO)[C@@H](O)[C@H](O)[C@H]4O)[C@@H]2CC[C@]1(O[C@@H]1O[C@H](CO)[C@@H](O)[C@H](O)[C@H]1O[C@@H]1O[C@H](CO)[C@@H](O)[C@H](O)[C@H]1O)C3 [Rebaudioside E]
Sweetness potency (relative to sucrose) [1]: 174

C=C1C[C@@]23CC[C@H]4[C@@](C)(CCC[C@@]4(C)C(=O)O[C@@H]4O[C@H](CO)[C@@H](O)[C@H](O)[C@H]4O)[C@@H]2CC[C@]1(O[C@@H]1O[C@H](CO)[C@@H](O)[C@H](O[C@@H]2O[C@H](CO)[C@@H](O)[C@H](O)[C@H]2O)[C@H]1O[C@@H]1O[C@H](CO)[C@@H](O)[C@H](O)[C@H]1O)C3 [Rebaudioside A]
Sweetness potency (relative to sucrose) [1]: 200-300

C=C1C[C@@]23CC[C@H]4[C@@](C)(CCC[C@@]4(C)C(=O)O[C@@H]4O[C@H](CO)[C@@H](O)[C@H](O)[C@H]4O)[C@@H]2CC[C@]1(O[C@@H]1O[C@H](CO)[C@@H](O)[C@H](O)[C@H]1O[C@@H]1O[C@H](CO)[C@@H](O)[C@H](O)[C@H]1O)C3 [Stevioside]
Sweetness potency (relative to sucrose) [1]: 150-250

Rebaudioside B
Sweetness potency (relative to sucrose) [1]: 150

C=C1C[C@@]23CC[C@H]4[C@@](C)(CCC[C@@]4(C)C(=O)O)[C@@H]2CC[C@]1(O[C@@H]1O[C@H](CO)[C@@H](O)[C@H](O)[C@H]1O[C@@H]1O[C@H](CO)[C@@H](O)[C@H](O)[C@H]1O)C3 [Steviolbioside]
Sweetness potency (relative to sucrose) [1]: 90

C=C1C[C@@]23CC[C@H]4[C@@](C)(CCC[C@@]4(C)C(=O)O[C@@H]4O[C@H](CO)[C@@H](O)[C@H](O)[C@H]4O)[C@@H]2CC[C@]1(O[C@@H]1O[C@H](CO)[C@@H](O)[C@H](O)[C@H]1O)C3 [Rubusoside]
Sweetness potency (relative to sucrose) [1]: 114
